Measured values published in EP0326329B1, “Quinazoline derivatives useful as insecticides” (Dow AgroSciences LLC, priority 1988, dated 1989).
Read-outs that look alike come from different tables or passages of the source.

What was measured:
Type in all cases: in vivo
[1] = test system: southern armyworm (Spodopetra eridania Cramer); test: Mite/insect screen, sprayed squash leaves (SAW); conditions: percent mortality; for mortality at 400 ppm / mortality at 200 ppm: Spodoptera eridania, read-out: SAW RESULTS %; for mortality at 200 ppm: spray rate 200 ppm; for SAW RESULTS %: rate not given
Method in brief: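 Mortality and phytotoxicity read after standard exposure periods on sprayed squash: cotyledons for melon aphids and twospotted spider mites, excised leaves placed with southern armyworm larvae. Spray solutions were water dilutions of acetone/alcohol stocks containing TOXIMUL R and S emulsifiers, applied to runoff at 10 psi and air-dried one hour.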

[2] = test system: melon aphids (Aphis gossypii Glover); test: Mite/insect screen, sprayed squash cotyledons (MA); conditions: percent mortality; for mortality at 400 ppm / mortality at 200 ppm: Aphis gossypii, read-out: MA RESULTS %; for mortality at 200 ppm: spray rate 200 ppm; for MA RESULTS %: rate not given
Method in brief: (§1)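 Compounds dissolved in acetone/alcohol with TOXIMUL R/S emulsifiers, diluted with water to test concentrations, and sprayed to runoff on both leaf surfaces at 10 psi, then dried 1 h. Excised treated squash leaves given southern armyworm larvae; aphid and spider mite tests on sprayed squash cotyledons. Percent mortality and phytotoxicity scored after standard exposure.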

[3] = test system: Twospotted spider mites (Tetranychus urticae Koch); test: Mite/insect screen, sprayed squash cotyledons (SM); conditions: percent mortality; for mortality at 400 ppm / mortality at 200 ppm: Tetranychus urticae, read-out: SM RESULTS %; for mortality at 200 ppm: spray rate 200 ppm; for SM RESULTS %: rate not given
Method in brief: as §1

[4] = test system: Pseudoperonospora cubensis (downy mildew); test: Greenhouse Test 1, foliar spray fungicide screen (DOWN MDEW), host squash; conditions: disease control rating, 400 ppm (+++ at 100 ppm)
[5] = test system: Pyricularia oryzae (rice blast); conditions: disease control rating, foliar spray, host rice; 400 ppm (+++ at 100 ppm)
[6] = test system: Erysiphe graminis tritici (powdery mildew); test: Greenhouse Test 1, foliar spray fungicide screen (POWD MDEW), host wheat; conditions: disease control rating, 400 ppm (+++ at 100 ppm)
[7] = test system: Botrytis cinerea (gray mold); test: Greenhouse Test 1, foliar spray fungicide screen (GRAY MOLD), host grape berries; conditions: disease control rating, 400 ppm (+++ at 100 ppm)
[8] = test system: Southern corn rootworm (Diabrotica undecimpuctata howardi Barber); test: Mite/insect screen, soil treatment (CRW); conditions: percent mortality; for mortality at 24 ppm / mortality at 12 ppm: Diabrotica, soil treatment, read-out: CRW RESULTS %; for mortality at 12 ppm: CRW rate 12.00 ppm; for CRW RESULTS %: rate not given
Method in brief: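 Five 2–3 instar larvae were placed on dry sandy soil with a presoaked corn seed after the soil had received 1 mL of compound solution and dried 6–12 h; cups were kept capped at 23°C. Mortality (%) and phytotoxicity were read after standard exposure. Formulation: acetone/alcohol with emulsifiers, water-diluted.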

[9] = test system: Puccinia recondita tritici (leaf rust); test: Greenhouse Test 1, foliar spray fungicide screen (LEAF RUST), host wheat; conditions: disease control rating, 400 ppm (+++ at 100 ppm)

| Compound | mortality at 200 ppm [1] | mortality at 200 ppm [2] | mortality at 200 ppm [3] | DOWN MDEW [4] | RICE BLAST [5] | POWD MDEW [6] | GRAY MOLD [7] | mortality at 12 ppm [8] | LEAF RUST [9] | mortality at 400 ppm ([1]; spray rate 400 ppm) | SAW RESULTS % [1] | mortality at 400 ppm ([2]; spray rate 400 ppm) | MA RESULTS % [2] | mortality at 400 ppm ([3]; spray rate 400 ppm) | SM RESULTS % [3] | mortality at 24 ppm ([8]; CRW rate 24.00 ppm) | CRW RESULTS % [8] | further results |
| --- | --- | --- | --- | --- | --- | --- | --- | --- | --- | --- | --- | --- | --- | --- | --- | --- | --- | --- |
| Fc1ccccc1Oc1ccc(CCOc2ncnc3c(F)cccc23)cc1 [Example 198, 8-fluoro-4-[2-[4-(2-fluorophenoxy)phenyl]ethoxy]quinazoline] | 100% | 100% | 100% | +++ (+++ = 90-100% control at 100 ppm) | +++ (+++ = 90-100% control at 100 ppm) | +++ (+++ = 90-100% control at 100 ppm) | - (- = 0-19% control at 400 ppm) | 0% | +++ (+++ = 90-100% control at 100 ppm) | – | – | – | – | – | – | – | – | mortality at 400 ppm ([1]; Southern armyworm, sprayed squash leaves, RATE 400 PPM): 100%; mortality at 400 ppm ([2]; melon aphids, sprayed squash cotyledons, RATE 400 PPM): 0%; mortality at 400 ppm ([3]; twospotted spider mites, sprayed squash cotyledons, RATE 400 PPM): 0%; mortality at 24 ppm ([8]; corn rootworm, CRW RATE 24.00 PPM): 0% |
| Clc1cccc(CCOc2ncnc3ccccc23)c1 [Example 41, 4-[2-(3-chlorophenyl)ethoxy]quinazoline] | – | – | – | +++ (+++ = 90-100% control at 100 ppm) | ++ (++ = 90-100% control at 400 ppm) | +++ (+++ = 90-100% control at 100 ppm) | - (- = 0-19% control at 400 ppm) | – | +++ (+++ = 90-100% control at 100 ppm) | 0% | 0% | 80% | 100% | 80% | 0% | 0% | 0% | – |
| CCc1ccc(CCOc2ncnc3ccccc23)cc1 [Example 65, 4-[2-(4-ethylphenyl)ethoxy]quinazoline] | – | – | – | +++ (+++ = 90-100% control at 100 ppm) | +++ (+++ = 90-100% control at 100 ppm) | +++ (+++ = 90-100% control at 100 ppm) | - (- = 0-19% control at 400 ppm) | – | +++ (+++ = 90-100% control at 100 ppm) | 0% | – | 100% | – | 100% | – | 0% | – | – |
| Oc1ccc(CCOc2ncnc3ccccc23)cc1 [Example 115, 4-[2-(4-hydroxyphenyl)ethoxy]quinazoline] | 0% | 0% | 0% | + (+ = 20-89% control at 400 ppm) | + (+ = 20-89% control at 400 ppm) | + (+ = 20-89% control at 400 ppm) | - (- = 0-19% control at 400 ppm) | 0% | +++ (+++ = 90-100% control at 100 ppm) | 0% | – | 0% | – | 0% | – | 0% | – | – |
| c1ccc(Oc2ccc(CCNc3ncnc4ccccc34)cc2)cc1 [Example 104, N-[2-(4-phenoxyphenyl)ethyl]-4-quinazolinamine] | – | – | – | +++ (+++ = 90-100% control at 100 ppm) | +++ (+++ = 90-100% control at 100 ppm) | +++ (+++ = 90-100% control at 100 ppm) | - (- = 0-19% control at 400 ppm) | – | +++ (+++ = 90-100% control at 100 ppm) | 100% | 0% | 0% | 100% | 0% | 100% | 100% | 0% | – |
| CCC(COc1ncnc2ccccc12)c1ccc(-c2ccccc2)cc1 (stereo not shown) [Example 142, 4-[2-(1,1'-biphenyl)-4-ylbutoxy]quinazoline] | – | – | – | - (- = 0-19% control at 400 ppm) | ++ (++ = 90-100% control at 400 ppm) | + (+ = 20-89% control at 400 ppm) | - (- = 0-19% control at 400 ppm) | – | + (+ = 20-89% control at 400 ppm) | 0% | – | 30% | – | 60% | – | 0% | – | – |
